We go through 16 molecules from patent US11613546B2, “Substituted pyridotriazine compounds and uses thereof” (Gilead Sciences, Inc., priority 2021, dated 2023).

Where two headings read alike, the source gives them in different places.

Common to all, as to type: cell-based
One series deals with MT-4 cells. Nature of the series: Cytotoxicity assay in MT-4 cells. The gist of the method: (§1)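 Uninfected MT-4 cells were incubated with 1:3 serially diluted compound in RPMI/10% FBS for 5 days at 37° C. Viability was read by CellTiter-Glo luminescence, with 10 μM puromycin as the baseline cytotoxicity control. Values are the concentration giving a 50% decrease in luminescence, from sigmoidal dose-response fits.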

In the next series the test system is pLai RLuc reporter virus. Nature of the series: HIV MT-4 serum shift antiviral reporter assay. The gist of the method:
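MT-4 cells pre-infected with pLai RLuc virus for 2 h at 37 °C, then incubated 72 h at 37 °C with compound in medium (RPMI, 10% FBS) with or without 50% human serum; Renilla luminescence read. EC50 from sigmoidal fit; serum shift = EC50(HS/CCM)/EC50(CCM).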
In general terms: In a reporter assay the amount or activity of a reporter protein is the signal.

In a further series the test system is HIV-1 (IIIB). Nature of the series: Antiviral assay in MT-4 cells. The settings on record: HIV-1 IIIB infected MT-4 cells, 5 days, Cell Titer Glo, read-out: MT4 EC50. The method, boiled down: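 MT-4 cells infected with a 1:250 dilution of HIV-1 IIIB stock were incubated with serially diluted (1:3) compound for 5 days at 37 °C. Viability read by Cell Titer Glo luminescence; EC50 is the concentration giving 50% decrease in signal, from sigmoidal dose-response fits.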
In general terms: Cellular ATP, detected with luciferase, serves as a proxy for viable cell number.

Series [1] is described as follows: Cytotoxicity assay in MT-4 cells. To be noted: human. The method, boiled down:
as §1

Setting [2] is: uninfected MT-4 cells, 5 days, Cell Titer Glo, read-out: CC50.
Where [3] appears, read: HS/CCM: 50% human serum, 72 h, Renilla Glo, read-out: RLUC 50% HS.
The mark [4] stands for this setting: cell culture media (RPMI, 10% FBS), 72 h, Renilla Glo, read-out: RLUC CCM.
The mark [5] stands for this setting: Human immunodeficiency virus 1, IIIB, MT4, 120 h.
Where [6] appears, read: Human immunodeficiency virus 1, 72 h, read-out: RLUC 50% HS (nM), HS/CCM: 50% human serum, 72 h, Renilla Glo.
[7] abbreviates: Human immunodeficiency virus 1, 72 h, read-out: RLUC CCM (nM), cell culture media (RPMI, 10% FBS), 72 h, Renilla Glo.

In the case of `C[C@@H]1C[C@@H](F)[C@@H](F)CN2CN1n1cc(C(=O)NCc3ccc(F)cc3F)c(=O)c(O)c1C2=O` (single isomer, unassigned) [Example C38], the half-maximal cytotoxic concentration (CC50) with MT-4 cells (setting [2]) is 13600 nM. Further, the EC50 in the series on pLai RLuc reporter virus (setting [3]) is 17 nM; with pLai RLuc reporter virus (setting [4]) it was 1.1 nM; in the series on HIV-1 (IIIB), 1.5 nM.
On the same counts, the results for `O=C(NCc1c(F)cc(F)cc1F)c1cn2c(c(O)c1=O)C(=O)N1Cc3cc(F)ccc3CN2C1` [Example C1, (6R)-10-fluoro-1-hydroxy-2,14-dioxo-N-(2,4,6-trifluorobenzyl)-2,7,12,14-tetrahydro-6,13-methanobenzo[g]pyrido[1,2-b][1,2,5]triazonine-3-carboxamide] are 10100 nM, 30.2 nM, 3.18 nM and 20 nM.
Take `O=C(NCc1c(F)cc(F)cc1F)c1cn2c(c(O)c1=O)C(=O)N1Cc3ccc(F)cc3CN2C1` [Example C2, (6R)-9-fluoro-1-hydroxy-2,14-dioxo-N-(2,4,6-trifluorobenzyl)-2,7,12,14-tetrahydro-6,13-methanobenzo[g]pyrido[1,2-b][1,2,5]triazonine-3-carboxamide]: in the series on MT-4 cells (setting [2]), the CC50 came out at 12800 nM. Further, the EC50 with pLai RLuc reporter virus (setting [3]) worked out at 47.9 nM; in the series on pLai RLuc reporter virus (setting [4]) it was 2.86 nM; in the series on HIV-1 (IIIB), 18 nM.
On the same counts, the results for `O=C(NCc1c(F)cc(F)cc1F)c1cn2c(c(O)c1=O)C(=O)N1Cc3cc(F)ccc3CN2C1` [Example C3, (6S)-10-fluoro-1-hydroxy-2,14-dioxo-N-(2,4,6-trifluorobenzyl)-2,7,12,14-tetrahydro-6,13-methanobenzo[g]pyrido[1,2-b][1,2,5]triazonine-3-carboxamide] are 13400 nM, 2.72 nM, 0.39 nM and 1.7 nM.
Regarding `C[C@@H]1CCCCN2CN1n1cc(C(=O)NCc3ccc(F)cc3F)c(=O)c(O)c1C2=O` [Example C15, (1R,2R)—N-(2,4-difluorobenzyl)-9-hydroxy-2-methyl-8,10-dioxo-3,4,5,6,8,10-hexahydro-2H-1,7-methanopyrido[1,2-b][1,2,5]triazecine-11-carboxamide], the CC50 in the series with MT-4 cells (setting [2]) was found to be 9970 nM. Besides, the EC50 in the series with HIV-1 (IIIB) turned out to be 1.9 nM.
As to `C[C@@H]1/C=C\C[C@@H](C)N2CN1C(=O)c1c(O)c(=O)c(C(=O)NCc3c(F)cc(F)cc3F)cn12` [Example C18, (1S,2R,6R,Z)-9-hydroxy-2,6-dimethyl-8,10-dioxo-N-(2,4,6-trifluorobenzyl)-3,6,8,10-tetrahydro-2H-1,7-methanopyrido[1,2-b][1,2,5]triazecine-11-carboxamide], in the series with MT-4 cells, the CC50 worked out at 13400 nM. Also, the EC50 in the series on HIV-1 (IIIB) stood at 4.3 nM.
Turning to `C[C@H]1/C=C\C[C@H](C)N2CN1C(=O)c1c(O)c(=O)c(C(=O)NCc3c(F)cc(F)cc3F)cn12` [Example C20, (1S,2S,6S,Z)-9-hydroxy-2,6-dimethyl-8,10-dioxo-N-(2,4,6-trifluorobenzyl)-3,6,8,10-tetrahydro-2H-1,7-methanopyrido[1,2-b][1,2,5]triazecine-11-carboxamide], the CC50 in the series on MT-4 cells (setting [2]) came out at 16600 nM. Moreover, in the series with HIV-1 (IIIB), the EC50 turned out to be 3.5 nM.
On to `C[C@@H]1C(F)=C[C@H](C)N2CN1n1cc(C(=O)NCc3c(F)cc(F)cc3F)c(=O)c(O)c1C2=O` [Example C36, (1S,2R,5S)-3-fluoro-8-hydroxy-2,5-dimethyl-7,9-dioxo-N-(2,4,6-trifluorobenzyl)-2,5,7,9-tetrahydro-1,6-methanopyrido[1,2-b][1,2,5]triazonine-10-carboxamide], for which, in the series on MT-4 cells (setting [2]), the CC50 was 16600 nM. For the same molecule, in the series on HIV-1 (IIIB), the EC50 was 1.6 nM.
As to `C[C@H]1C=CC(C)(C)N2CN1C(=O)c1c(O)c(=O)c(C(=O)NCc3c(F)cc(F)cc3F)cn12` [Example C48, (1S,5S)-8-hydroxy-2,2,5-trimethyl-7,9-dioxo-N-(2,4,6-trifluorobenzyl)-2,5,7,9-tetrahydro-1,6-methanopyrido[1,2-b][1,2,5]triazonine-10-carboxamide], the CC50 with MT-4 cells (setting [2]) worked out at 50000 nM. The EC50 with HIV-1 (IIIB) came out at 1.5 nM.
With `C[C@@H]1N2CN([C@@H](C)CC1(F)F)n1cc(C(=O)NCc3ccc(F)cc3F)c(=O)c(O)c1C2=O` [Example C59, (1S,2S,5S)—N-(2,4-difluorobenzyl)-4,4-difluoro-8-hydroxy-2,5-dimethyl-7,9-dioxo-2,3,4,5,7,9-hexahydro-1,6-methanopyrido[1,2-b][1,2,5]triazonine-10-carboxamide], the CC50 in the series on MT-4 cells (setting [2]) was found to be 50000 nM. Besides, in the series with HIV-1 (IIIB) (setting [5]), the EC50 amounted to 2.8 nM.
On to `C[C@H]1C=C[C@@]2(CCOC2)N2CN1C(=O)c1c(O)c(=O)c(C(=O)NCc3c(F)cc(F)cc3F)cn12` [Example C85, (1′S,3R,5′S)-8′-hydroxy-5′-methyl-7′,9′-dioxo-N-(2,4,6-trifluorobenzyl)-4,5,7′,9′-tetrahydro-2H,5′H-spiro[furan-3,2′-[1,6]methanopyrido[1,2-b][1,2,5]triazonine]-10′-carboxamide], for which the CC50 in the series with MT-4 cells (setting [2]) stood at 29000 nM.
As for `C[C@@H]1[C@H]2C[C@H]2[C@H](C)N2CN1n1cc(C(=O)NCc3c(F)cc(F)cc3F)c(=O)c(O)c1C2=O` [Example C88, (1aS,2R,3S,11S,11aR)-8-hydroxy-2,11-dimethyl-7,9-dioxo-N-(2,4,6-trifluorobenzyl)-1a,2,7,9,11,11a-hexahydro-1H-3,10-methanocyclopropa[g]pyrido[1,2-b][1,2,5]triazonine-6-carboxamide], the CC50 in the series with MT-4 cells (setting [2]) was 34300 nM. The EC50 with HIV-1 (IIIB) came to 1.1 nM.
In turn, `C[C@H]1C=CC2(CCC2)N2CN1C(=O)c1c(O)c(=O)c(C(=O)NCc3c(F)cc(F)cc3F)cn12` [Example C104, (1′S,5′S)-8′-hydroxy-5′-methyl-7′,9′-dioxo-N-(2,4,6-trifluorobenzyl)-7′,9′-dihydro-5′H-spiro[cyclobutane-1,2′-[1,6]methanopyrido[1,2-b][1,2,5]triazonine]-10′-carboxamide] had a CC50 at 5 days in series [1] (CC50 (nM)) of 19700 nM. Further, the EC50 came out at 140 nM in the series with pLai RLuc reporter virus (setting [6]), 0.44 nM in the series on pLai RLuc reporter virus (setting [7]) and 1.4 nM in the series with HIV-1 (IIIB) (setting [5]).
`C[C@H]1CCC2(CCC2)N2CN1C(=O)c1c(O)c(=O)c(C(=O)NCc3c(F)cc(F)cc3F)cn12` [Example C105, (1′S,5′S)-8′-hydroxy-5′-methyl-7′,9′-dioxo-N-(2,4,6-trifluorobenzyl)-4′,5′,7′,9′-tetrahydro-3′H-spiro[cyclobutane-1,2′-[1,6]methanopyrido[1,2-b][1,2,5]triazonine]-10′-carboxamide] yielded a CC50 at 5 days in series [1] (CC50 (nM)) of 13600 nM. The EC50 in the series with pLai RLuc reporter virus (setting [6]) turned out to be 998 nM; in the series with pLai RLuc reporter virus (setting [7]), 1.38 nM; with HIV-1 (IIIB) (setting [5]), 3 nM.
Consider `CC[C@H]1C=C[C@H](C)N2CN1n1cc(C(=O)NCc3c(F)cc(F)cc3F)c(=O)c(O)c1C2=O` [Example C106, (1S,2S,5S)-2-ethyl-8-hydroxy-5-methyl-7,9-dioxo-N-(2,4,6-trifluorobenzyl)-2,5,7,9-tetrahydro-1,6-methanopyrido[1,2-b][1,2,5]triazonine-10-carboxamide], for which the CC50 at 5 days in series [1] (setting [2]) came to 18400 nM. In addition, the EC50 in the series on pLai RLuc reporter virus (setting [6]) worked out at 107 nM; in the series on pLai RLuc reporter virus (setting [7]), 0.22 nM; with HIV-1 (IIIB) (setting [5]), 1.7 nM.
As to “(1S,2R,5S)—N-(2,4-difluorobenzyl)-8-hydroxy-2,3,5-trimethyl-7,9-dioxo-2,5,7,9-tetrahydro-1,6-methanopyrido[1,2-b][1,2,5]triazonine-10-carboxamide [Example C62]”, half-maximal cytotoxicity in the series on MT-4 cells (CC50) was put at 50000 nM. In the series with HIV-1 (IIIB), the EC50 was determined as 1.4 nM.

By CC50 is commonly meant the concentration at which the toxic effect on the cells reaches its halfway point.
